Test results reported in patent US20260083742A1, “HOMOLOGOUS RECOMBINATION REPAIR DEFICIENCY (HRD) AS A PREDICTIVE BIOMARKER FOR TREATING CANCER WITH WEE1 INHIBITORS” (Zeno Management, Inc., priority 2023, published 2026).

Experiments:
[1] = test system: HCC1937 PARP inhibitor-resistant TNBC xenograft; assay: HCC1937 TNBC xenograft tumor growth inhibition; format: in vivo, mice
Description: Anti-tumor activity of azenosertib monotherapy or in combination with olaparib was evaluated in the HCC1937 model in vivo in mice (FIG. 9), and Table 11 summarizes the groups and treatments. […] Treatment with monotherapy olaparib at 100 mg/kg QD confirmed HCC1937 resistance to the PARP inhibitor.

[2] = Body weight loss and clinical observations in ovarian PDX study; format: in vivo
Description: Relative Body Weight (RBW), individual body weight and mean body weight loss percent were calculated for each measurement by dividing the body weight by the body weight at the start of treatment as described in Example 3.

[3] = test system: uterine serous carcinoma (USC) or high-grade serous ovarian cancer (HGSOC); assay: Azenosertib in subjects with USC or HGSOC grouped by HRRm status: tumor response and progression free survival; format: in vivo, human; details: for tumor size change, median: USC population, azenosertib 300 mg or more; for progression free survival: subjects treated with 300+mg azenosertib
Description: Subjects with uterine serous carcinoma (USC) or high-grade serous ovarian cancer (HGSOC) were treated with azenosertib and grouped by azenosertib dose of lower than 300 mg (LT300) or at or greater than 300 mg azenosertib (300+mg). […] Total subjects in parenthesis includes all subjects in the study including subjects receiving LT300.
Subjects selected in Table 1 were evaluated for tumor response when treated with doses of 300 mg or more of azenosertib or with lower than 300 mg of azenosertib. In the USC population treated with azenosertib of 300 mg or more (300+), HRRm positivity was associated with better tumor response (p=0.01). (FIG. 1B and FIG. 1C). The HRRm median was −33% and HRR wt median was −5%. […] HRRm subject population was associated with 8.3 months of progression free survival, compared to HRR wt subject population with 4.2 months progression free survival. (FIG. 1D). HRRm status was associated with better progression free survival in subjects treated with at least 300 mg azenosertib, supporting an effective dose of 300 mg or more in HRD subjects.

[4] = test system: patient-derived ovarian xenograft (PDX) models (OVA2-BUR, CTG-0703, CTG-2213); assay: Anti-tumor efficacy in ovarian PDX models; format: in vivo; details: BRCA1 pathogenic mutant ovarian PDX vs BRCA1 WT / benign mutant; azenosertib 60 mg/kg, niraparib 35 mg/kg
Description: The OVA2-BUR model has an HRD negative/BRCA1 WT phenotype. Tumor growth inhibition was also measured using BRCA1^Glu1607Ter (pathogenic) mutant and BRCA1^Pro1099Leu (Benign) mutant PDX models.

[5] = test system: parental MDA-MB-436 TNBC cell line; assay: In vitro activity (IC50) in parental MDA-MB-436; format: cell-based; details: Homo sapiens; parental MDA-MB-436; read-out: In vitro activity (IC50) Wild Type
Description: Cells with BRCA reversion mutations may be considered HRD+due to genome instability (such as TAI, LST, LOH). BRCA reversion mutation is an established mechanism of resistance to both platinum-based chemotherapeutic drugs and PARP inhibitors. In vivo exploration of WEE1 inhibitors (azenosertib, adavosertib) and PARP inhibitors (niraparib, olaparib) was evaluated.
MDA-MB-436 PARP inhibitor-resistant lines were generated by long-term in vitro treatment with a PARP inhibitor that is olaparib (Ola^R) or niraparib (Nir^R).

[6] = azenosertib 60 mg/kg and/or niraparib 35 mg/kg p.o., (5 days on, 2 days off) × 4

With C=CCn1c(=O)c2cnc(Nc3ccc(N4CCN(C)CC4)cc3)nc2n1-c1ccc2c(n1)[C@@](O)(CC)CC2 [Azenosertib, azenosertib] the tumor growth inhibition ([1]; monotherapy azenosertib 60 mg/kg QD 5:2) was 80%, the tumor growth inhibition ([1]; monotherapy azenosertib 80 mg/kg QD 5:2) was 89% and the “Max. individual BWL” value [2, 6] was 7.6%. The “Max. mean BWL” value [2, 6] was 0.7%, the “tolerability (body weight data and clinical observations)” value ([2]; azenosertib at 60 mg/kg, niraparib at 35 mg/kg, single agents or in combination) was “well tolerated” and the “tumor size change, median” value ([3]; HRR wt) was −5%. For the same molecule, the “tumor size change, median” value ([3]; HRRm) was −33%, the progression free survival ([3]; HRR wt) was 4.2 months and the progression free survival ([3]; HRRm) was 8.3 months. The “tumor growth inhibition in HRD+ model compared to BRCA1 WT or benign BRCA1 mutant models” value [4] was “increased tumor growth inhibition” and the IC50 [5] was 282 nM.
